From patent publication US20230405028A1 (priority 2020, published 2023)
Read-outs that look alike come from different tables or passages of the source.

What was measured:
COX-2 = COX-2 in HSIEC cells treated with TNF-α/IFN-γ (western blot, densitometry); type: cell-based, human; details: single agent, escalating doses
Method: (§1) Cell Culture: Human primary small intestinal epithelial cells (HSIEC), purchased from Cell Biologics were cultured in Epithelial Cell Medium/w Kit. HSIEC cells were incubated at 37° C. in a humidified atmosphere of 5% CO2. HSIEC cells were treated with mycoplasma removal reagent BM-Cyclin (Roche) to ensure mycoplasma negative before treatment.
To do so, COX-2, an enzyme which mediates the bioconversion of arachidonic acid to inflammatory prostaglandins (PGs), was measured via densitometry. GAPDH was used as a reference housekeeping marker for relative densitometry measures. […] Ethanol or DMSO was used, as indicated in the figures, as a vehicle for dilution and as a negative control showing the amount of the inflammatory marker present when inflammation was not induced.
Increasing doses of each molecule of interest, or each combination of molecules of interest, were then distributed to the HSIEC cells treated to induce inflammatory response. Inflammatory markers COX-2 and/or IL-6 were assessed at specific timepoints after induction of inflammation for protein content marker measured via western blot. GAPDH was used as a reference housekeeping marker for relative densitometry measures of protein content.

IL-8 = IL-8 in HSIEC cells treated with TNF-α/IFN-γ; type: cell-based, human; details: single agent, escalating doses
IL-6 = IL-6 in HSIEC cells treated with TNF-α/IFN-γ; type: cell-based, human; details: single agent, escalating doses
Method: as §1
Induction of Inflammation in HSIECs and Treatment with Molecules of Interest: HSIEC cells grown to 80% confluence were treated with 10 ng/ml TNF-α/IFN-γ (Sigma) (Yang et al., 2015), for the time points indicated in FIG. 9, to assess the best time point for determination of anti-inflammatory potential of the molecules and formulations of interest. To do so, COX-2, an enzyme which mediates the bioconversion of arachidonic acid to inflammatory prostaglandins (PGs), was measured via densitometry. GAPDH was used as a reference housekeeping marker for relative densitometry measures. […] The anti-inflammatory potential of the molecules and formulations of interest were evaluated at 48 hours post-TNF-α/IFN-γ treatment in the HSIEC assays described below due to reduced variability and ability to assess differences between treatments. Ethanol or DMSO was used, as indicated in the figures, as a vehicle for dilution and as a negative control showing the amount of the inflammatory marker present when inflammation was not induced. […]

[1] = system: Human primary small intestinal epithelial cells (HSIEC)

Cc1ccc(C(C)C)cc1O [carvacrol]
doses reducing COX-2 to the greatest extent (COX-2): 5 µM
doses resulting in reduction of IL-8 (IL-8): all doses
doses resulting in reduction of IL-6 (IL-6): 10 µM
effect on cell growth / cellular metabolic activity (MTT, words) [1]: could only be studied at very low dose
Cellular Metabolic Activity ([1]; 5 μM, 24 h): 0.072
Cellular Metabolic Activity ([1]; 5 μM, 48 h): 0.175
Cellular Metabolic Activity ([1]; 5 μM, 72 h): 0.261
Cellular Metabolic Activity ([1]; 5 μM, 96 h): 0.501
Cellular Metabolic Activity ([1]; 5 μM, time 0): 0.022
Cellular Metabolic Activity ([1]; 10 μM, 24 h): 0.070
Cellular Metabolic Activity ([1]; 10 μM, 48 h): 0.164
Cellular Metabolic Activity ([1]; 10 μM, 72 h): 0.267
Cellular Metabolic Activity ([1]; 10 μM, 96 h): 0.487
Cellular Metabolic Activity ([1]; 10 μM, time 0): 0.021
Cellular Metabolic Activity ([1]; 20 μM, 24 h): 0.071
Cellular Metabolic Activity ([1]; 20 μM, 48 h): 0.171
Cellular Metabolic Activity ([1]; 20 μM, 72 h): 0.266
Cellular Metabolic Activity ([1]; 20 μM, 96 h): 0.461
Cellular Metabolic Activity ([1]; 20 μM, time 0): 0.022
Cellular Metabolic Activity ([1]; 40 μM, 24 h): 0.070
Cellular Metabolic Activity ([1]; 40 μM, 48 h): 0.159
Cellular Metabolic Activity ([1]; 40 μM, 72 h): 0.272
Cellular Metabolic Activity ([1]; 40 μM, 96 h): 0.544
Cellular Metabolic Activity ([1]; 40 μM, time 0): 0.022
Cellular Metabolic Activity ([1]; 80 μM, 24 h): 0.076
Cellular Metabolic Activity ([1]; 80 μM, 48 h): 0.120
Cellular Metabolic Activity ([1]; 80 μM, 72 h): 0.221
Cellular Metabolic Activity ([1]; 80 μM, 96 h): 0.423
Cellular Metabolic Activity ([1]; 80 μM, time 0): 0.025
Cellular Metabolic Activity ([1]; 100 μM, 24 h): 0.069
Cellular Metabolic Activity ([1]; 100 μM, 48 h): 0.106
Cellular Metabolic Activity ([1]; 100 μM, 72 h): 0.259
Cellular Metabolic Activity ([1]; 100 μM, 96 h): 0.397
Cellular Metabolic Activity ([1]; 100 μM, time 0): 0.026
Cellular Metabolic Activity ([1]; 200 μM, 24 h): 0.061
Cellular Metabolic Activity ([1]; 200 μM, 48 h): 0.088
Cellular Metabolic Activity ([1]; 200 μM, 72 h): 0.179
Cellular Metabolic Activity ([1]; 200 μM, 96 h): 0.238
Cellular Metabolic Activity ([1]; 200 μM, time 0): 0.027
Cellular Metabolic Activity ([1]; 400 μM, 24 h): 0.062
Cellular Metabolic Activity ([1]; 400 μM, 48 h): 0.079
Cellular Metabolic Activity ([1]; 400 μM, 72 h): 0.139
Cellular Metabolic Activity ([1]; 400 μM, 96 h): 0.137
Cellular Metabolic Activity ([1]; 400 μM, time 0): 0.027
